# Laboratory results published in patent US8642541B2 (priority 2008, dated 2014).
# Entries after “also recorded” stand apart in the source; their conditions may differ.
# Experiments:
# human Glucagon-R = target: T1, human Glucagon-R (Homo sapiens, UniProt P47871); assay: Glucagon receptor efficacy assay (cAMP, HEK293 cells); assay type: cell-based; details: read-out: GLUR EC50
# T1 construct: expressed in transfected cells
# Experimental: The 5′-end primers additionally encoded a near Kozak consensus sequence to ensure efficient translation.
# 48 hr after transfection cells were seeded for limited dilution cloning and selected with 1 mg/ml G418 in the culture medium.
# On the day of analysis, growth medium was removed and the cells washed once with 200 μl Tyrode buffer. Cells were incubated in 100 μl Tyrode buffer containing increasing concentrations of test peptides, 100 μM IBMX, and 6 mM glucose for 15 min at 37° C. The reaction was stopped by addition of 25 μl 0.5 M HCl and incubated on ice for 60 min. The cAMP content was estimated using the FlashPlate® cAMP kit from Perkin-Elmer.
# [1] = tested on: primary rat adipocyte cultures; assay type: cell-based
# Experimental: Adipocytes were isolated from epididymal fat dissected from normal young adult Sprague-Dawley rats. The fat lumps were minced, incubated and shaken (220 rpm) with collagenase (1 mg/ml) in Krebs-Ringer buffer containing 4% BSA (KRB-BSA) for 60 minutes at 37° C. The suspension was filtered through a nylon filter (160 μm pore size) and the filtrate centrifuged at 200×g for 3 min. The subjacent medium beneath the upper floating layer of adipocytes was removed with a Pasteur-pipette. The adipocytes were washed 3 times in KRB-BSA buffer by re-suspension and centrifugation. The adipocytes were re-suspended in KRB-BSA, mixed, incubated in and shaken with test compounds in 96-deep well plates (50,000 cells/well) in a total volume of 1 ml at 37° C. for 60 min. The plates were placed on ice for at least 10 min after incubation followed by centrifugation at 200×g for 3 min. 300 μl of the buffer beneath the adipocyte layer were collected in a 96-deep well plate. This process was repeated two more times and the 3 extracts collected from each culture pooled together. The glycerol formed by the lipolysis in the adipocyte cultures was measured by adding free glycerol reagent (200 μl) to aliquots (25 μl) of adipocyte extract, incubate at room temperature for 15 min, and measure the absorbance at 540 nm.
# [2] = Oral glucose tolerance test (OGTT) in db/db mice; assay type: in vivo; details: 45 nmol/kg i.p.
# Experimental: The animals were kept fasted during the experiment to prevent confounding food intake. Fifteen minutes later an oral dose of glucose (1 g/kg in 5 ml/kg) was given and BG levels were measured at t=30 min, t=60 min, t=120 min and t=240 min.
# Difference from baseline (t=0) was calculated for each time point and AUC0-240 min values were determined. Statistical analyses of AUC values by one-way ANOVA and Dunnetts post-hoc analyses were performed with GraphPad Prism version 4. Differences were considered significant at the p<0.05 level.
# [3] = 28 day treatment of diet induced obese (DIO) mice: body weight gain; assay type: in vivo
# Experimental: Four weeks before drug treatments, C57Bl/6 male mice (7 weeks) (10-12 animals in each group) were put on high fat diet (HFD) and their day-night cycle reversed with lights On/Off at 2000/0800 hour. Experimental animals were conditioned to treatment by daily injections (s.c.) of 0.1 ml vehicle and acclimatized to handling by weighing them twice a week one week before start of drug administrations. The day before start of experiment, mice were stratified into groups with similar body weight (BW) and the next day groups of stratified mice were treated (b.i.d.; s.c.) with ZP2653 (SEQ ID NO: 4) (500 nmol/kg)), or vehicle (PBS, pH 7.4, 2.5 μl/g BW). A non-obese control group maintained on regular chow was treated with vehicle in the same treatment regime as the DIO groups. Body weights were recorded daily and used to administer the body weight-corrected doses of peptide throughout the study. Animals were fasted overnight before sacrifice. An eye blood sample (0.6 ml EDTA) was obtained the following morning immediately before cervical dislocation. Blood plasma samples were stored at −80° C. until analyzed for cholesterol, HDL and LDL using commercially available kits. Body weight gains throughout the treatment period were calculated for each animal by subtracting its weight at the initiation of treatment. […]
# [4] = 28 day treatment of DIO mice: plasma cholesterol, HDL and LDL; assay type: in vivo; details: 4 weeks b.i.d., compared to vehicle
# Experimental: Four weeks before drug treatments, C57Bl/6 male mice (7 weeks) (10-12 animals in each group) were put on high fat diet (HFD) and their day-night cycle reversed with lights On/Off at 2000/0800 hour. Experimental animals were conditioned to treatment by daily injections (s.c.) of 0.1 ml vehicle and acclimatized to handling by weighing them twice a week one week before start of drug administrations. […] A non-obese control group maintained on regular chow was treated with vehicle in the same treatment regime as the DIO groups. Body weights were recorded daily and used to administer the body weight-corrected doses of peptide throughout the study. Animals were fasted overnight before sacrifice. An eye blood sample (0.6 ml EDTA) was obtained the following morning immediately before cervical dislocation. Blood plasma samples were stored at −80° C. until analyzed for cholesterol, HDL and LDL using commercially available kits. Body weight gains throughout the treatment period were calculated for each animal by subtracting its weight at the initiation of treatment.
# Statistical analyses of data on body weight gain and cholesterols among treatments by 2-way ANOVA with repeated measures and Bonferoni post-hoc analyses were performed with GraphPad Prism version 4. Differences were considered significant at the p<0.05 level.
# T1 sequence (P47871 26-477): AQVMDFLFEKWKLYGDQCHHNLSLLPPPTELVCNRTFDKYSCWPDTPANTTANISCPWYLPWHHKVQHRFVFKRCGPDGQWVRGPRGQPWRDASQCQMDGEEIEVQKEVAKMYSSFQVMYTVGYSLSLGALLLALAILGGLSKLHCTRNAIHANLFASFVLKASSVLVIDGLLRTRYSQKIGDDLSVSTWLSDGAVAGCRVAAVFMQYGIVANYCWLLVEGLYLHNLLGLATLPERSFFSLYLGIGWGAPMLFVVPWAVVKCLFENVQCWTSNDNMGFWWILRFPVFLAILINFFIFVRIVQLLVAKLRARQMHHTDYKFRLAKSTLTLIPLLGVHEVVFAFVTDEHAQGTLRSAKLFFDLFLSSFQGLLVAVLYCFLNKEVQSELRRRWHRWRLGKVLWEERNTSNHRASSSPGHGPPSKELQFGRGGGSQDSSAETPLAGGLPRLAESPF
Substance,EC50 (human Glucagon-R) [nM],EC50 [1] [nM],lipolysis potency relative to OXM ([1]; primary adipocyte cultures) [times],lipolysis potency relative to glucagon ([1]; primary adipocyte cultures),improvement of glucose tolerance (decrease in Area Under the curve (AUC)) ([2]; AUC0-240 min) [%],effect on oral glucose tolerance ([2]; OGTT),"effect on body weight gain ([3]; DIO mice on HFD, 500 nmol/kg b.i.d. s.c., 28 days, versus vehicle)","effect on fat deposition ([3]; DIO mice, 4 weeks treatment)",effect on HDL/LDL ratios [4],effect on concentrations of LDL cholesterol [4]
H-HSQGTFTSDYSLYLDSRRAKDFIEWLERA-NH2 [Compound L006-0050],0.1,–,–,–,–,–,–,–,–,–
H-HSQGTFTSDYSLYLDSRRAKDFIEWLESA-NH2 [ZP2653],–,3.6,50,equipotent to glucagon,39.5,significantly improved glucose tolerance,decreased body weight gain to a level similar to that observed with chow feeding; also recorded: decreased body weight gain significantly,significantly decreased fat deposition,significant,significant effect
